Laboratory results as given in US12337004B2, “Coumarin-modified androgens for the treatment of prostate cancer” (Health Research, Inc., priority 2019, dated 2025).
“Also recorded” adds a separate entry of the source. Where a name gives a salt, the structure may show the parent alone.

What was measured:
VCaP cells = assay: MTT cell growth, VCaP; assay type: cell-based
Protocol: (§1) Identification of a 3α-oxidoreductase inhibitors: Various non-steroidal compounds were tested for anti-neoplastic activity by screening against PC-3 CaP cells. Coumarin-labeled androgens were developed to track changes in androgen metabolism pathways in response to castration or androgen metabolism inhibition using in vitro and in vivo CaP cell models.
(§2) VCaP, CWR-R1 and PC-3 cells were treated for six days with complete culture media (CM), serum-free culture media (SFM), bicalutamide (Bic) at 10 μM, the coumarin C at 20 μM, DHT at 10 nM, DHT-17C at 20 nM and DHT-3C at 20 nM (FIG. 20). […] MTT analysis was performed to compare cell growth impairment of VCaP cells treated with DHT-17C versus enzalutamide. Cells were treated with DHT-17C at 1 nM, 12 nM, 20 nM, 50 nM or 100 nM concentrations, or enzalutamide at 1 μM, 12 μM, 20 μM, 50 μM or 100 μM concentrations. […] MTT performed using ezanlutamide (20 uM) or DHT-17C (50 nM) treated mutant AR and AR-V7 positive CWR-R1 cells supported VCaP MTT data (FIG. 22).

CWR-R1 cells = assay: MTT cell growth, CWR-R1; assay type: cell-based, human; settings: six days; DHT-17C at 20 nM, DHT-3C at 20 nM
Protocol: as §1, §2

LAPC-4 cells = assay: MTT cell growth, LAPC-4; assay type: cell-based; settings: six days; data not shown
LNCaP cells = assay: MTT cell growth, LNCaP; assay type: cell-based; settings: six days; data not shown
CaP cell lines = assay: MTT CaP cell growth during androgen deprivation, cell line panel; assay type: cell-based; settings: SFM with DHT-3C, six days
From the text: MTT analysis was used to assess if treatment with DHT-3C facilitated CaP cell growth during androgen deprivation. […] SFM with DHT-3C stimulated growth in 3 of 5 cell lines (FIG. 25).

AR-GFP = biological target: T1, AR-GFP (Homo sapiens, UniProt P10275); assay: ImageStream nuclear co-localization with AR-GFP; assay type: cell-based
T1 construct: expressed in transfected cells; host or cells: VCaP, PC-3 (also LAPC-4, CWR-R1, 22Rv1, DU145)
T1 sequence (P10275 1-920): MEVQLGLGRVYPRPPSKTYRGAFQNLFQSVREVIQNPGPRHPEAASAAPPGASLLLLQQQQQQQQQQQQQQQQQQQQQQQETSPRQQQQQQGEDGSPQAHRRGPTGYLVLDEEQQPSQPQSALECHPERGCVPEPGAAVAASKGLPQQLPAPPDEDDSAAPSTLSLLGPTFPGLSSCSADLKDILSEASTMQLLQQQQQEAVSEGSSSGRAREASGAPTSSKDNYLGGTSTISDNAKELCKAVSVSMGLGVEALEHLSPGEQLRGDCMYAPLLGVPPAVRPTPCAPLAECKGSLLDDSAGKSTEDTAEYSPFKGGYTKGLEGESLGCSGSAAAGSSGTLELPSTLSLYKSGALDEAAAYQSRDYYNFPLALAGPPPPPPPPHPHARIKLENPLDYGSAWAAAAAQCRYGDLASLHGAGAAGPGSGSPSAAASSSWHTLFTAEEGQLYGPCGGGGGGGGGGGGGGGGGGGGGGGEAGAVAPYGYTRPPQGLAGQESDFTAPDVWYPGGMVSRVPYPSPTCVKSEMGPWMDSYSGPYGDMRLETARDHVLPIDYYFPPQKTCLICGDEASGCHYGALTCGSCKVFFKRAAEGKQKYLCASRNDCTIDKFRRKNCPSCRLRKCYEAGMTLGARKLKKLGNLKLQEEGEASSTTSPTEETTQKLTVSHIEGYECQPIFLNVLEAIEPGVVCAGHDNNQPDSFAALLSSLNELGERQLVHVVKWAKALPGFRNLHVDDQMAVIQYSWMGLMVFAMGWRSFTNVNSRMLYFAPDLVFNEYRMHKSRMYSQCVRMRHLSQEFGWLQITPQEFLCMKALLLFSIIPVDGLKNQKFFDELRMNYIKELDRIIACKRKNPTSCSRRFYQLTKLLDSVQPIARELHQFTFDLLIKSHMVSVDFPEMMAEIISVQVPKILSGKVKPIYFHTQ
From the text: Androgen-sensitive AR-positive LAPC-4 and VCaP, castration-recurrent and AR-positive CWR-R1 and CWR-22rv1 (22rv1), and AR-negative PC-3 and DU145 cells were transfected with either an empty pCMV expression plasmid (control) or a pCMV plasmid that encoded a wild-type AR tagged with a C-terminal green fluorescent protein (GFP; AR-GFP). AR-positive CaP cell lines were transfected with AR-GFP to assess if DHT-17C or DHT-3C co-localized with AR and translocated to the nucleus.
AR positive CaP cell lines were treated for 16 hours with androgen-free, serum-free complete media (SFM) alone, or SFM that contained 20 nM or 50 nM fluorescent-androgens or C alone. The time points were chosen to measure differences in uptake of the fluorescent-androgens and nuclear or cytosolic localization of the fluorescent-androgens and/or AR-GFP.
Serum-free complete media (SFM)^2 was used to androgen deprive cells.

[1] = tested on: AR- or AR-GFP negative PC-3 cells; assay: ImageStream nuclear localization in AR-negative PC-3 cells; assay type: cell-based; settings: PC-3 cells without AR or AR-GFP (empty plasmid); hydrochloride
Protocol: (§3) ImageStream studies were repeated using VCaP and PC-3 cells that stably expressed AR-V2 (splice-variant that lacked the N-terminus) with C-terminal GFP (AR-V2-GFP). […] ImageStream data was confirmed using immunoprecipation (IP) studies performed with a DHT-targeted antibody.
(§4) Serum-free complete media (SFM)^2 was used to androgen deprive cells. PC-3 cells that contained empty plasmid were treated with SFM alone, SFM with C or SFM with DHT-3C.

AR-V2-GFP = biological target: T2, AR-V2-GFP (Homo sapiens, UniProt P10275); assay: ImageStream co-localization with AR-V2-GFP; assay type: cell-based; settings: VCaP and PC-3 cells that stably expressed AR-V2-GFP; hydrochloride
T2 construct: stably expressed AR170 LBD only with splice variant V2 (AR-V2-GFP); expressed in transfected cells; host or cells: VCaP, PC-3
T2 sequence (P10275 1-388 isoform P10275-2): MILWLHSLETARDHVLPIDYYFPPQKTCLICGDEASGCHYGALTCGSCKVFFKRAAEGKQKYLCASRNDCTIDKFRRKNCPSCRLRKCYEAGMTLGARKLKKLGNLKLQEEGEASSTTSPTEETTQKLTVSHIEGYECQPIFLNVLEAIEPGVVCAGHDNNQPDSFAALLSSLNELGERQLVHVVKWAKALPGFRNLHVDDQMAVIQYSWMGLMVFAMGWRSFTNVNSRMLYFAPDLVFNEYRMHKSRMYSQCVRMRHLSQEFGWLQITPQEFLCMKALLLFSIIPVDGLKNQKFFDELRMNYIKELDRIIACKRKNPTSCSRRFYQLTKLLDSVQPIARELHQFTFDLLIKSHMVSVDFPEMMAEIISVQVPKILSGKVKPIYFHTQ
Protocol: as §3, §4

KLK2 [2] = assay: qRT-PCR of AR-regulated gene KLK2; assay type: cell-based; settings: 24 hours; VCaP, LAPC-4, LNCaP, CWR-R1 and 22rv1 cells
KLK2 [3] = assay: Western blot of AR-regulated protein expression; assay type: cell-based; settings: CaP cell lines
CRPC = settings: cited from earlier work

For `C[C@]12CC[C@]3(C[C@@H]1CC[C@@H]1[C@@H]2CC[C@]2(C)[C@@H](O)CC[C@@H]12)NCCc1c3c(=O)oc2c3c4c(cc12)CCCN4CCC3` [DHT-3C, (3R,5S,10S,13S,17S)-17-hydroxy-10,13-dimethyl-1,2,2′,3′,4,5,6,7,8,8′,9,9′,10,11,12,12′,13,13′,14,15,16,17-docosahydro-7′H,11′H-spiro[cyclopenta[a]phenanthrene-3,4′-pyrido[3,2,1-ij]pyrido[4′,3′:4,5]pyrano[2,3-j]quinolin]-5′(1′H)-one hydrochloride], the “VCaP cell growth (MTT)” value (VCaP cells; six days, DHT-17C at 20 nM, DHT-3C at 20 nM) was “promoted VCaP, LAPC-4, and LNCaP cell growth”, the “CWR-R1 cell growth (MTT)” value (CWR-R1 cells) was “promoted” and the “LAPC-4 cell growth (MTT)” value (LAPC-4 cells) was “promoted VCaP, LAPC-4, and LNCaP cell growth”. For the same molecule, the “LNCaP cell growth (MTT)” value (LNCaP cells) was “promoted VCaP, LAPC-4, and LNCaP cell growth”, the “cell lines with stimulated growth” value (CaP cell lines) was 3 of 5 and the “nuclear co-localization with AR-GFP” value (AR-GFP; PC-3-AR-GFP cells, SFM) was “showed nuclear co-localization between DHT-3C and AR-GFP”. The “nuclear co-localization with AR-GFP” value (AR-GFP; VCaP that stably expressed AR-GFP) was “demonstrated co-localization between DHT-3C and AR-GFP”, the “nuclear co-localization with AR-GFP and DRAQ5” value (AR-GFP; VCaP-AR-GFP and PC-3-AR-GFP cells) was “co-localized with AR-GFP” and the “nuclear localization in AR-negative cells” value [1] was “did not produce nuclear fluorescence”. The “co-localization with AR-V2-GFP” value (AR-V2-GFP) was “co-localized with DRAQ5 and AR-V2-GFP; also recorded: co-localized with the AR LBD”, the KLK2 transcript induction (KLK2 [2]) was “produced similar inductions of expression” and the “AR-regulated protein expression levels” value (KLK2 [3]) was “produced similar AR-regulated protein expression levels”.

In the case of `CNC(=O)c1ccc(N2C(=S)N(c3ccc(C#N)c(C(F)(F)F)c3)C(=O)C2(C)C)cc1F` [enzalutamide, reference compound], the “VCaP cell growth impairment versus DHT-17C” value (VCaP cells; enzalutamide at 1, 12, 20, 50 or 100 μM) is given as “impaired VCaP cell growth to similar extents” and the extension of survival (CRPC) is given as 4.8 months.
